The record followed here is US20250042862A1, “AROMATIC HETEROCYCLIC COMPOUND AND APPLICATION THEREOF” (Shanghai Institute of Materia Medica, Chinese Academy of …, priority 2021, published 2025).

Each structure is given as a SMILES string.

One assay deals with human recombinant LSD1 protein (Homo sapiens (Human), UniProt O60341). As to the kind of experiment: In vitro enzyme inhibition activity assay - LSD1 (Lance Ultra TR-FRET). Format: biochemical. The note with it: all compounds tested in the form of hydrochloride. The procedure: The purpose of this experiment was to test the in vitro inhibitory activity of the compounds against LSD1. The human recombinant LSD1 protein used in the experiment was purchased from Active Motif, and the enzyme level activity testing assay of LSD1 was performed using the Lance Ultra LSD1 Histone H3 Lysine 4 Demethylase Assay Kit (PerkinElmer). Tris-buffer (50 mMTris-HCl, 50 mMNaCl, 0.01% Tween-20, 1 mM DTT, 10 μM FAD, 10% glycerol, pH 9.0) was first prepared, and after preparation, the LSD1 fractions required for test were placed in this buffer and incubated for one hour at room temperature; the fractions included 4 μL of substrate solution ([…] Bio-H3K4me2, 1-24aa), 4 μL of enzyme solution (4 nM LSD1), and 2 μL of inhibitor in a 384-well microplate. After these operations, another 5 μL of assay mixture containing Eu-labeled H3K4me0 antibody and ULight-Streptavidin anti-biotin protein was added to the system, after which the fluorescence intensity of the components to be tested was detected by using Envision (PerkinElmer) in TR-FRET mode (excitation wavelength of 320 nm, emission wavelength of 620 nm). The test was repeated a total of three times to minimize errors. The final IC50 data were calculated by the software GraphPad Prism 5, and finally the sigmoidal dose-response (variable slope) method was used to obtain the fitted curve.
The LSD1 inhibitory activities of representative compounds of the present application as well as the positive control compound CC90011 were provided in Table 2. All compounds were tested in the form of hydrochloride.
On the technique in general: Time-resolved FRET reads energy transfer from a long-lived donor to a nearby acceptor.
With `N#Cc1ccc(-c2nc(N3CCC[C@@H](N)CC3)nc3ccc(-c4c(F)cccc4C(F)(F)F)cc23)cc1F` (stereo in doubt) [Compound 89, 4-(2-(4-aminoazepan-1-yl)-6-(2-fluoro-6-(trifluoromethyl)phenyl)quinazolin-4-yl)-2-fluorobenzonitrile], the IC50 (in general, the concentration that inhibits the measured activity by half) is ≤ 30 nM.
The same measure, in the same setting: to `N#Cc1ccc(-c2nc(N3CCC(N)CC3)nc3ccc(-c4c(F)cccc4C(F)(F)F)cc23)cc1F` [Compound 19, 4-(2-(4-aminopiperidin-1-yl)-6-(2-fluoro-6-(trifluoromethyl)phenyl)quinazolin-4-yl)-2-fluorobenzonitrile] belongs ≤ 30 nM.
Turning to `N#Cc1ccc(-c2nc(N3CCC(N)CC3)nc3c(F)cc(-c4ccccc4C(F)(F)F)cc23)cc1F` [Compound 80, 4-(2-(4-aminopiperidin-1-yl)-8-fluoro-6-(2-trifluoromethylphenyl)quinazolin-4-yl)-2-fluorobenzonitrile], the IC50 is ≤ 30 nM.
Still for that read-out and setting: to `N#Cc1ccc(-c2nc(N3CCC(N)CC3)nc3c(F)cc(-c4ccccc4F)cc23)cc1F` [Compound 81] belongs 30 to 300 nM.
On to `N#Cc1ccc(-c2nc(N3CCC(N)CC3)nc3c(F)cc(-c4c(F)cccc4C(F)(F)F)cc23)cc1F` [Compound 82], for which the IC50 is ≤ 30 nM.
Consider `N#Cc1ccc(-c2nc(N3CC[C@@H](N)[C@@H](F)C3)nc3ccc(-c4c(F)cccc4C(F)(F)F)cc23)cc1F` [Compound 83, 4-(2-((3S,4R)-4-amino-3-fluoropiperidin-1-yl)-6-(2-fluoro-6-(trifluoromethyl)phenyl)quinazolin-4-yl)-2-fluorobenzonitrile], for which the IC50 lay within 30 to 300 nM.
Still for that read-out and setting: to `N#Cc1ccc(-c2nc(N3CC[C@@H](N)[C@H](F)C3)nc3ccc(-c4c(F)cccc4C(F)(F)F)cc23)cc1F` [Compound 84, 4-(2-((3R,4R)-4-amino-3-fluoropiperidin-1-yl)-6-(2-fluoro-6-(trifluoromethyl)phenyl)quinazolin-4-yl)-2-fluorobenzonitrile] belongs 30 to 300 nM.
Same read-out and setting: to `N#Cc1ccc(-c2nc(N3CC[C@H](N)[C@@H](F)C3)nc3ccc(-c4c(F)cccc4C(F)(F)F)cc23)cc1F` [Compound 85, 4-(2-((3S,4S)-4-amino-3-fluoropiperidin-1-yl)-6-(2-fluoro-6-(trifluoromethyl)phenyl)quinazolin-4-yl)-2-fluorobenzonitrile] belongs 30 to 300 nM; to `N#Cc1ccc(-c2nc(N3CCCC[C@H](N)C3)nc3ccc(-c4c(F)cccc4C(F)(F)F)cc23)cc1F` [Compound 86, (S)-4-(2-(3-aminoazepan-1-yl)-6-(2-fluoro-6-(trifluoromethyl)phenyl)quinazolin-4-yl)-2-fluorobenzonitrile], ≤ 30 nM; to `N#Cc1ccc(-c2nc(N3CCCC[C@@H](N)C3)nc3ccc(-c4c(F)cccc4C(F)(F)F)cc23)cc1F` [Compound 87, (R)-4-(2-(3-aminoazepan-1-yl)-6-(2-fluoro-6-(trifluoromethyl)phenyl)quinazolin-4-yl)-2-fluorobenzonitrile], ≤ 30 nM.
Same read-out and setting: next, `N#Cc1ccc(-c2nc(N3CCC[C@H](N)CC3)nc3ccc(-c4c(F)cccc4C(F)(F)F)cc23)cc1F` [Compound 88, (S)-4-(2-(4-aminoazepan-1-yl)-6-(2-fluoro-6-(trifluoromethyl)phenyl)quinazolin-4-yl)-2-fluorobenzonitrile]: ≤ 30 nM; `N#Cc1ccc(-c2nc(N3CC[C@H](N)C3)nc3ccc(-c4c(F)cccc4C(F)(F)F)cc23)cc1F` [Compound 90, (S)-4-(2-(3-aminopyrrolidin-1-yl)-6-(2-fluoro-6-(trifluoromethyl)phenyl)quinazolin-4-yl)-2-fluorobenzonitrile]: ≤ 30 nM; `N#Cc1ccc(-c2nc(N3CC[C@@H](N)C3)nc3ccc(-c4c(F)cccc4C(F)(F)F)cc23)cc1F` [Compound 91, (R)-4-(2-(3-aminopyrrolidin-1-yl)-6-(2-fluoro-6-(trifluoromethyl)phenyl)quinazolin-4-yl)-2-fluorobenzonitrile]: ≤ 30 nM.
For the molecule `N#Cc1ccc(-c2nc(N3CCC(N)CC3)nc3c2CN(c2ccccc2C(F)(F)F)CC3)cc1F` [Compound 92, 4-(2-(4-aminopiperidin-1-yl)-6-(2-(trifluoromethyl)phenyl)-5,6,7,8-tetrahydropyrido[4,3-d]pyrimidin-4-yl)-2-fluorobenzonitrile], the IC50 lay in the range of 30 to 300 nM.
Regarding `N#Cc1ccc(-c2nc(N3CCC(N)CC3)nc3c2CN(c2c(F)cccc2C(F)(F)F)CC3)cc1F` [Compound 93, 4-(2-(4-aminopiperidin-1-yl)-6-(2-fluoro-6-(trifluoromethyl)phenyl)-5,6,7,8-tetrahydropyrido[4,3-d]pyrimidin-4-yl)-2-fluorobenzonitrile], the IC50 was 30 to 300 nM.
On to `Cn1ncc2cccc(N3CCc4nc(N5CCC(N)CC5)nc(-c5ccc(C#N)c(F)c5)c4C3)c21` [Compound 94, 4-(2-(4-aminopiperidin-1-yl)-6-(1-methyl-1H-indazol-7-yl)-5,6,7,8-tetrahydropyrido[4,3-d]pyrimidin-4-yl)-2-fluorobenzonitrile], for which the IC50 lay in the range of 30 to 300 nM.
On the same count and under the same terms, next, `N#Cc1ccc(-c2nc(N3CCC(N)CC3)cc3ccc(-c4c(F)cccc4C(F)(F)F)cc23)cc1F` [Compound 98, 4-(3-(4-Aminopiperidin-1-yl)-7-(2-fluoro-6-(trifluoromethyl)phenyl)isoquinolin-1-yl)-2-fluorobenzonitrile]: ≤ 30 nM; `Cn1c(=O)c(-c2ccccc2C(F)(F)F)cc2c(-c3ccc(C#N)c(F)c3)nc(N3CCC(N)CC3)nc21` [Compound 99, 4-(2-(4-aminopiperidin-1-yl)-8-methyl-7-oxo-6-(2-trifluoromethylphenyl)-7,8-dihydropyrido[2,3-d]pyrimidin-4-yl)-2-fluorobenzonitrile]: ≤ 30 nM.

The test system of the next assay is MV4-11 cell line transplanted tumor. Nature of the assay: In vivo efficacy evaluation in mouse transplanted tumor model. Also noted: species or system mouse (female NU/NU nude mice). The conditions noted are these: MV4-11 xenograft in NU/NU nude mice; 20 mg/kg by gavage every day for 21 days. The procedure: Experimental purpose: To test the in vivo efficacy of compounds in mouse transplanted tumor model Experimental materials: female NU/NU nude mice, MV4-11 cell line Experimental methods: female NU/NU nude mice, weighing 20±2 g, were inoculated with MV4-11 cell line in the right axillary subcutaneous with a cell inoculation amount of 5×10^6/mouse. When the tumor formed, the diameter of the transplanted tumor was measured with vernier calipers, and the tumor was grew up to 100-300 mm^3; the animals were divided into model control group and administration group according to their weights and tumor volumes, with 6 animals per group. The administration group was administered with a suspension ground with 0.5% CMC-Na, while the model control group was given an equal amount of blank solvent. After grouping, the drug was administered orally every day at a dose of 20 mg/kg for 21 days. During the experiment, the diameter of the transplanted tumor was measured and the weight of the mice was weighed twice a week, and the tumor tissues were taken from the animal after euthanasia on the 21st day. […]
For the molecule `N#Cc1ccc(-c2nc(N3CCC[C@@H](N)CC3)nc3ccc(-c4c(F)cccc4C(F)(F)F)cc23)cc1F` (stereo in doubt) [Compound 89, 4-(2-(4-aminoazepan-1-yl)-6-(2-fluoro-6-(trifluoromethyl)phenyl)quinazolin-4-yl)-2-fluorobenzonitrile], the “relative tumor proliferation rate T/C” value was “less than 50%”.
On to `N#Cc1ccc(-c2nc(N3CCC(N)CC3)nc3ccc(-c4c(F)cccc4C(F)(F)F)cc23)cc1F` [Compound 19, 4-(2-(4-aminopiperidin-1-yl)-6-(2-fluoro-6-(trifluoromethyl)phenyl)quinazolin-4-yl)-2-fluorobenzonitrile], for which the “relative tumor proliferation rate T/C” value is given as “less than 50%”.
